Results taken from patent publication US20250152585A1, “PHARMACEUTICAL COMPOUND” (Duke Street Bio Limited, priority 2022, published 2025).
Where two headings read alike, the source gives them in different places.

Columns and labels:
[1] = target: T1, N-terminally FLAG-tagged PARP2 (amino acids 1-583) (Homo sapiens, UniProt Q9UGN5); assay: PARP2 probe displacement HTRF assay; format: binding; conditions: binned Kd, PARP2 probe displacement HTRF
T1 construct: N-terminally FLAG-tagged PARP2 (amino acids 1-583)
Method: Data analysis was performed identical as for PARP1.

[2] = target: T2, full length N-terminally FLAG-tagged PARP1 (Homo sapiens, UniProt P09874); assay: PARP1 probe displacement HTRF assay; conditions: for Selectivity: PARP1 over PARP2, ratio Kd (PARP2)/Kd (PARP1), probe displacement HTRF; for Kd: binned Kd, PARP1 probe displacement HTRF
[3] = target: T2, full length N-terminally FLAG-tagged PARP1; assay: PARP1 biochemical DELFIA assay (auto-PARylation); set-up: recombinant full length human N-terminally FLAG-tagged PARP1; conditions: binned IC50, PARP1 biochemical DELFIA assay

T2 sequence (P09874 whole entry): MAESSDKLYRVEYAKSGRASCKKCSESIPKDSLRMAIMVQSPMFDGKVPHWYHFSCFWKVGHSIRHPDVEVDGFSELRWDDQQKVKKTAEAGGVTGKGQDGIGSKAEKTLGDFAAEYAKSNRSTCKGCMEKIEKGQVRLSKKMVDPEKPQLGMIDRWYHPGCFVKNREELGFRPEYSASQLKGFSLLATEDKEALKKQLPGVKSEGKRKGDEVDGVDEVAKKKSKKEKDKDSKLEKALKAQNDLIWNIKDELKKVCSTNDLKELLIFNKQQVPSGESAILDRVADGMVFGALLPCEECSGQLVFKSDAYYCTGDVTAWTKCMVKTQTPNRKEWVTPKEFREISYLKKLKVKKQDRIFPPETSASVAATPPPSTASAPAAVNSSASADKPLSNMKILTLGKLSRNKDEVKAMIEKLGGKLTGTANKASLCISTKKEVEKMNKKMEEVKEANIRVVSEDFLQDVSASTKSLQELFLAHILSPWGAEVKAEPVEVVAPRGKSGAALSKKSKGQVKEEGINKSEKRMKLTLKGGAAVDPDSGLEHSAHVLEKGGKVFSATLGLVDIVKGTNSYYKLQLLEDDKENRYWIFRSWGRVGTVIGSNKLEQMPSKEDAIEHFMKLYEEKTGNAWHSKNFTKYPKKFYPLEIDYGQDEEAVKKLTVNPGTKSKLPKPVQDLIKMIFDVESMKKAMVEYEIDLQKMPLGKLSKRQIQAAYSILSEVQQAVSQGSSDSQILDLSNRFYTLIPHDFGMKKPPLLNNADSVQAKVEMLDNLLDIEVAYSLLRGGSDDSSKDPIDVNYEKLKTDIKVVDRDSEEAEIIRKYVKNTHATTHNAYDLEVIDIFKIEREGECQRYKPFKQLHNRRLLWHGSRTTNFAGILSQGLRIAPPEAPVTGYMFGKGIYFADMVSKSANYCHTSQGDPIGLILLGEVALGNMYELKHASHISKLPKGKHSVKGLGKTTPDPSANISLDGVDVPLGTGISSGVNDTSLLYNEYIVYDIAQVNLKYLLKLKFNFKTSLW
T1 sequence (Q9UGN5 whole entry, the tested form may be a part): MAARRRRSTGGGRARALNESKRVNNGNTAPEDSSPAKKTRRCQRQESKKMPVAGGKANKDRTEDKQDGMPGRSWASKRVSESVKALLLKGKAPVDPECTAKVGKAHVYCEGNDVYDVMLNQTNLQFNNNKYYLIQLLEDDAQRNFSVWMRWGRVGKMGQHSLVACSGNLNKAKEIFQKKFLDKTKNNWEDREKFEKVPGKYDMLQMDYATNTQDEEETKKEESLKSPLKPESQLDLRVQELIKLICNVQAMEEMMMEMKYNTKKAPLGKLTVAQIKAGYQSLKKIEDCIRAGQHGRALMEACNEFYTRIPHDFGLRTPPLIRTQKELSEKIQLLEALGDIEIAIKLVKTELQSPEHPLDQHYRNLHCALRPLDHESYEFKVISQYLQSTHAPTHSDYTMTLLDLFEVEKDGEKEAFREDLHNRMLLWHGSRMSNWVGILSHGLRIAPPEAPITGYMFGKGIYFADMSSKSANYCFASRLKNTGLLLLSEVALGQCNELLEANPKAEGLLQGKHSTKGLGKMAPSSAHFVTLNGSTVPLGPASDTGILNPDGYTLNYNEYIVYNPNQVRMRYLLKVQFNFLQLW

SMILES | Kd [1] [nM] | Selectivity [2] | Kd ([2]; read-out: PARP1 HTRF) [nM] | IC50 [3] [nM] | Kd ([2]; PARP1 HTRF) [nM]
O=C(NCCF)c1ccc(N2CCC(N3CCC(c4nc5ccccc5c(=O)[nH]4)C3)CC2)cn1 (single isomer, unassigned) [Compound 117a] | 100 to 1000 | + (+ indicates a value of 10 to less than 50) | 10 to 100 | 10 to 100 | 
O=C(NCCF)c1ccc(N2CCC(N3CCC(c4nc5ccccc5c(=O)[nH]4)C3)CC2)cn1 (single isomer, unassigned) [Compound 117b] | 100 to 1000 | +++ (+++ indicate a value of at least 100) | < 10 | < 10 | 
CCc1nc(C(=O)NC)ccc1N1CCC(N2CCC(c3nc4ccccc4c(=O)[nH]3)C2)CC1 (single isomer, unassigned) [Compound 118a] | > 10000 | +++ (+++ indicate a value of at least 100) | < 10 | < 10 | 
CCc1nc(C(=O)NC)ccc1N1CCC(N2CCC(c3nc4ccccc4c(=O)[nH]3)C2)CC1 (single isomer, unassigned) [Compound 118b] | > 10000 | ++ (++ indicates a value of 50 to less than 100) | 10 to 100 | 10 to 100 | 
CNC(=O)c1ccc(N2CCC(N3CCC(c4nc5c(F)cccc5c(=O)[nH]4)C3)CC2)cn1 (single isomer, unassigned) [Compound 121a] | 100 to 1000 | + (+ indicates a value of 10 to less than 50) | 10 to 100 | 10 to 100 | 
CNC(=O)c1ccc(N2CCC(N3CCC(c4nc5c(F)cccc5c(=O)[nH]4)C3)CC2)cn1 (single isomer, unassigned) [Compound 121b] | 100 to 1000 | +++ (+++ indicate a value of at least 100) | < 10 | < 10 | 
CCNC(=O)c1ccc(N2CCC(N3CCCC(c4nc5ccccc5c(=O)[nH]4)C3)CC2)cn1 (single isomer, unassigned) [Compound 122a] | > 10000 | +++ (+++ indicate a value of at least 100) | 10 to 100 | < 10 | 
CCNC(=O)c1ccc(N2CCC(N3CCCC(c4nc5ccccc5c(=O)[nH]4)C3)CC2)cn1 (single isomer, unassigned) [Compound 122b] | 1000 to 10000 | − (− indicates a value of less than 10) | 100 to 1000 | 10 to 100 | 
NC(=O)c1ccc(N2CCC(N3CCC(c4nc5ccccc5c(=O)[nH]4)C3)CC2)cn1 (single isomer, unassigned) [Compound 123a] | 100 to 1000 | + (+ indicates a value of 10 to less than 50) | 10 to 100 | 10 to 100 | 
NC(=O)c1ccc(N2CCC(N3CCC(c4nc5ccccc5c(=O)[nH]4)C3)CC2)cn1 (single isomer, unassigned) [Compound 123b] | 1000 to 10000 | +++ (+++ indicate a value of at least 100) | < 10 | < 10 | 
CNC(=O)c1ccc(N2CCC(N3CCC(c4nc5ccccc5c(=O)[nH]4)C3)CC2)c(C)n1 (single isomer, unassigned) [Compound 125a] | 1000 to 10000 | +++ (+++ indicate a value of at least 100) | < 10 | < 10 | 
CNC(=O)c1ccc(N2CCC(N3CCC(c4nc5ccccc5c(=O)[nH]4)C3)CC2)c(C)n1 (single isomer, unassigned) [Compound 125b] | 1000 to 10000 | +++ (+++ indicate a value of at least 100) | < 10 | < 10 | 
CNC(=O)c1ccc(N2CCC(N3CCCC(c4ccc(C5CC5)c(=O)[nH]4)C3)CC2)cn1 (single isomer, unassigned) [Compound 126a] | 1000 to 10000 | +++ (+++ indicate a value of at least 100) | < 10 | < 10 | 
CNC(=O)c1ccc(N2CCC(N3CCCC(c4ccc(C5CC5)c(=O)[nH]4)C3)CC2)cn1 (single isomer, unassigned) [Compound 126b] | > 10000 | + (+ indicates a value of 10 to less than 50) | 100 to 1000 | 100 to 1000 | 
CNC(=O)c1ccc(N2CCC(N3CCC(c4cc5cccc(Cl)c5c(=O)[nH]4)C3)CC2)cn1 (single isomer, unassigned) [Compound 128a] | 1000 to 10000 | +++ (+++ indicate a value of at least 100) | 10 to 100 | 10 to 100 | 
CNC(=O)c1ccc(N2CCC(N3CCC(c4cc5cccc(Cl)c5c(=O)[nH]4)C3)CC2)cn1 (single isomer, unassigned) [Compound 128b] | 10 to 100 | ++ (++ indicates a value of 50 to less than 100) | < 10 | < 10 | 

SMILES | Kd [1] [nM] | Selectivity [2] | Kd ([2]; read-out: PARP1 HTRF) [nM] | IC50 [3] [nM] | Kd ([2]; PARP1 HTRF) [nM]
CNC(=O)c1ccc(N2CCC(N3CCC(c4cc5ccc(Cl)cc5c(=O)[nH]4)C3)CC2)cn1 (single isomer, unassigned) [Compound 129a] | 1000 to 10000 | +++ (+++ indicate a value of at least 100) | < 10 | < 10 | 
O=C(NCC(F)(F)F)c1ccc(N2CCC(N3CCC(c4nc5ccccc5c(=O)[nH]4)C3)CC2)cn1 (single isomer, unassigned) [Compound 130a] | 100 to 1000 | + (+ indicates a value of 10 to less than 50) | < 10 | < 10 | 
O=C(NCC(F)(F)F)c1ccc(N2CCC(N3CCC(c4nc5ccccc5c(=O)[nH]4)C3)CC2)cn1 (single isomer, unassigned) [Compound 130b] | 100 to 1000 | +++ (+++ indicate a value of at least 100) | < 10 | < 10 | 
CNC(=O)c1ccc(N2CCC(N3CCCC(c4nc5ccccc5c(=O)[nH]4)C3)CC2)c(C)n1 (single isomer, unassigned) [Compound 131a] | 1000 to 10000 | + (+ indicates a value of 10 to less than 50) | 100 to 1000 | 10 to 100 | 
CNC(=O)c1ccc(N2CCC(N3CCCC(c4nc5ccccc5c(=O)[nH]4)C3)CC2)c(C)n1 (single isomer, unassigned) [Compound 131b] | > 10000 | +++ (+++ indicate a value of at least 100) | < 10 | < 10 | 
CCc1ccc(C2CCN(C3CCN(c4ccc(C(=O)NC)nc4C)CC3)C2)[nH]c1=O (single isomer, unassigned) [Compound 133a] | 1000 to 10000 | +++ (+++ indicate a value of at least 100) | < 10 | < 10 | 
CCc1ccc(C2CCN(C3CCN(c4ccc(C(=O)NC)nc4C)CC3)C2)[nH]c1=O (single isomer, unassigned) [Compound 133b] | > 10000 | +++ (+++ indicate a value of at least 100) | 10 to 100 | 10 to 100 | 
CNC(=O)c1ccc(N2CCC(N3CCC(c4cc5cccc(F)c5c(=O)[nH]4)C3)CC2)cn1 (single isomer, unassigned) [Compound 136a, 5-{4-[3-(8-fluoro-1-oxo-2H-isoquinolin-3-yl)pyrrolidin-1-yl]piperidin-1-yl}-N-methylpyridine-2-carboxamide] | 100 to 1000 | +++ (+++ indicate a value of at least 100) |  | < 10 | < 10
CNC(=O)c1ccc(N2CCC(N3CCC(c4cc5c(Cl)cccc5c(=O)[nH]4)C3)CC2)cn1 (single isomer, unassigned) [Compound 137a] | 100 to 1000 | +++ (+++ indicate a value of at least 100) | < 10 | < 10 | 
CNC(=O)c1ccc(N2CCC(N3CCC(c4nc5ccccc5c(=O)[nH]4)C3)CC2)c(C(F)(F)F)n1 (single isomer, unassigned) [Compound 139a] | 1000 to 10000 | +++ (+++ indicate a value of at least 100) | < 10 | < 10 | 
CNC(=O)c1ccc(N2CCC(N3CCC(c4nc5ccccc5c(=O)[nH]4)C3)CC2)c(C(F)(F)F)n1 (single isomer, unassigned) [Compound 139b] | 1000 to 10000 | +++ (+++ indicate a value of at least 100) | 10 to 100 | 10 to 100 | 
CNC(=O)c1ccc(N2CCC(N3CCC(O)(c4nc5ccccc5c(=O)[nH]4)C3)CC2)cn1 (single isomer, unassigned) [Compound 140a] | > 10000 | ++ (++ indicates a value of 50 to less than 100) | 10 to 100 | 100 to 1000 | 
CNC(=O)c1ccc(N2CCC(N3CCC(O)(c4nc5ccccc5c(=O)[nH]4)C3)CC2)cn1 (single isomer, unassigned) [Compound 140b] | 1000 to 10000 | +++ (+++ indicate a value of at least 100) | 10 to 100 | 10 to 100 | 
CNC(=O)c1ccc(N2CC(N3CCCC(c4nc5ccccc5c(=O)[nH]4)CC3)C2)cn1 (single isomer, unassigned) [Compound 145a] | 1000 to 10000 | +++ (+++ indicate a value of at least 100) | < 10 | < 10 | 
CNC(=O)c1ccc(N2CC(N3CCCC(c4nc5ccccc5c(=O)[nH]4)CC3)C2)cn1 (single isomer, unassigned) [Compound 145b] | 1000 to 10000 | +++ (+++ indicate a value of at least 100) | < 10 | < 10 | 
CNC(=O)c1ccc(N2CCC(N3CCCC(c4nc5c(c(=O)[nH]4)CCCC5)C3)CC2)cn1 (single isomer, unassigned) [Compound 146a] | 1000 to 10000 | − (− indicates a value of less than 10) | 100 to 1000 | 100 to 1000 | 
